Experiments:
BRD4 (BDI_K57-E168) = target: T1, BRD4 (BDI_K57-E168) (Homo sapiens, UniProt O60885); assay: TR-FRET bromodomain binding assay, BRD4 first bromodomain; settings: His-tagged BD1, Alexa647-labeled probe 100 nM; Ki calculated from IC50
T1 construct: BD1: amino acids K57-E168; made in house
Procedure, shortened: (§1)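 Competition of compound (50 μM-0.85 nM, 2% DMSO) against an Alexa647-labelled BET-inhibitor probe, 100 nM for BDI or 30 nM for BDII, on 8 nM His-BRD4 bromodomain detected by 1 nM Eu-anti-His; 20 mM sodium phosphate pH 6.0, 1 h room temperature. Normalised to unlabelled-probe controls; IC50 converted to Ki.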

BRD4 (BDII_E352-M457) = target: T2, BRD4 (BDII_E352-M457) (Homo sapiens, UniProt O60885); assay: TR-FRET bromodomain binding assay, BRD4 second bromodomain; settings: His-tagged BD2, Alexa647-labeled probe 30 nM; Ki calculated from IC50
T2 construct: made in house
Procedure, shortened: as §1

[1] = system: breast cancer cell line MX-1; assay: MX-1 cell line proliferation assay; type: cell-based; settings: Homo sapiens, MX1, 72 h, MX-1 cells, 3-day proliferation assay, Cell Titer Glo; read-out: Cellular proliferation: EC50
Description: The impact of compounds of the Examples on cancer cell proliferation was determined using the breast cancer cell line MX-1 (ATCC) in a 3-day proliferation assay and the data are reported in Table 1. MX-1 cells were maintained in RPMI 1640 medium (Sigma) supplemented with 10% FBS at 37° C. and an atmosphere of 5% CO2. For compound testing, MX-1 cells were plated in 96-well black bottom plates at a density of 5000 cells/well in 90 μL of culture media and incubated at 37° overnight to allow cell adhesion and spreading. Compound dilution series were prepared in DMSO via a 3-fold serial dilution from 3 mM to 0.1 μM. The DMSO dilution series were then diluted 1:100 in phosphate buffered saline, and 10 μL of the resulted solution were added to the appropriate wells of the MX-1 cell plate. The final compound concentrations in the wells were 3, 1, 0.3, 0.1, 0.03, 0.01, 0.003, 0.001, 0.0003 and 0.0001 μM.
Luminescence readings from the Cell Titer Glo assay were normalized to the DMSO treated cells and analyzed using the GraphPad Prism software with sigmoidal curve fitting to obtain EC50s. The minimum significant ratio (MSR) was determined to evaluate assay reproducibility (Eastwood et al., (2006) J Biomol Screen, 11: 253-261).

| Compound | Ki (BRD4 (BDI_K57-E168)) [µM] | Ki (BRD4 (BDII_E352-M457)) [µM] | EC50 [1] [µM] |
| --- | --- | --- | --- |
| Cc1[nH]c(-c2ccccc2NC2CCOCC2)cc1C(N)=O [Example 70, 2-methyl-5-[2-(tetrahydro-2H-pyran-4-ylamino)phenyl]-1H-pyrrole-3-carboxamide] | 0.434 | 4.29 | > 3 |
| Cc1[nH]c(-c2ccccc2NC2C3CC4CC(C3)CC2C4)cc1C(N)=O (stereo not drawn) [Example 72, 2-methyl-5-{2-[tricyclo[3.3.1.1^3,7]dec-2-ylamino]phenyl}-1H-pyrrole-3-carboxamide] | 0.0781 | 0.416 | 0.167 |
| Cc1[nH]c(-c2ccccc2NC2CCCCC2F)cc1C(N)=O (stereo not drawn) [Example 75, 5-{2-[(2-fluorocyclohexyl)amino]phenyl}-2-methyl-1H-pyrrole-3-carboxamide] | 0.0376 | 0.225 | 0.433 |
| Cc1[nH]c(-c2ccccc2NC(=O)Cc2ccccc2)cc1C(N)=O [Example 76, 2-methyl-5-{2-[(phenylacetyl)amino]phenyl}-1H-pyrrole-3-carboxamide] | 4.5 | 2.98 | 13.4 |
| Cc1[nH]c(-c2ccccc2NS(=O)(=O)Cc2ccccc2)cc1C(N)=O [Example 83, 5-{2-[(benzylsulfonyl)amino]phenyl}-2-methyl-1H-pyrrole-3-carboxamide] | 0.237 | 0.653 | > 3 |
| Cc1[nH]c(-c2ccccc2NS(=O)(=O)Cc2ccc(Cl)cc2)cc1C(N)=O [Example 85, 5-(2-{[(4-chlorobenzyl)sulfonyl]amino}phenyl)-2-methyl-1H-pyrrole-3-carboxamide] | 1.85 | 13.2 | > 3 |
| Cc1[nH]c(-c2ccccc2NS(=O)(=O)C2CCCC2)cc1C(N)=O [Example 87, 5-{2-[(cyclopentylsulfonyl)amino]phenyl}-2-methyl-1H-pyrrole-3-carboxamide] | 0.366 | 0.465 | > 3 |
| Cc1ccc(-c2cc(C(N)=O)c(C)[nH]2)c(C)c1 [Example 90, 5-(2,4-dimethylphenyl)-2-methyl-1H-pyrrole-3-carboxamide] | 2.5 | 5.18 | 6.3 |
| Cc1[nH]c(-c2ccc(-c3ccc(CN4CCN(C)CC4)cc3)cc2)cc1C(N)=O [Example 97, 2-methyl-5-{4′-[(4-methylpiperazin-1-yl)methyl]biphenyl-4-yl}-1H-pyrrole-3-carboxamide] | 1.41 | 1.87 | 15.3 |
| COC/C=C/c1ccc(-c2cc(C(N)=O)c(C)[nH]2)cc1 [Example 107, 5-{4-[(1E)-3-methoxyprop-1-en-1-yl]phenyl}-2-methyl-1H-pyrrole-3-carboxamide] | 4.02 | 1.98 | 8.6 |
| Cc1[nH]c(-c2ccccc2Oc2ccccc2F)cc1C(N)=O [Example 117, 5-[2-(2-fluorophenoxy)phenyl]-2-methyl-1H-pyrrole-3-carboxamide] | 0.391 | 0.725 | 1.35 |
| Cc1[nH]c(-c2ccccc2Oc2ccc3cc[nH]c3c2)cc1C(N)=O [Example 118, 5-[2-(1H-indol-6-yloxy)phenyl]-2-methyl-1H-pyrrole-3-carboxamide] | 0.529 | 1.73 | 1.32 |
| Cc1[nH]c(-c2ccccc2Oc2ccc(N)cc2)cc1C(N)=O [Example 119, 5-[2-(4-aminophenoxy)phenyl]-2-methyl-1H-pyrrole-3-carboxamide] | 0.249 | 1.1 | 0.998 |
| Cc1[nH]c(-c2ccccc2Oc2ccc(Cc3ccccc3)cc2)cc1C(N)=O [Example 121, 5-[2-(4-benzylphenoxy)phenyl]-2-methyl-1H-pyrrole-3-carboxamide] | 0.776 | 10.2 | > 10 |
| Cc1[nH]c(-c2ccccc2Oc2cccc3cnccc23)cc1C(N)=O [Example 125, 5-[2-(isoquinolin-5-yloxy)phenyl]-2-methyl-1H-pyrrole-3-carboxamide] | 0.18 | 0.192 | 1.6 |
| Cc1[nH]c(-c2ccccc2Oc2cccnc2)cc1C(N)=O [Example 126, 2-methyl-5-[2-(pyridin-3-yloxy)phenyl]-1H-pyrrole-3-carboxamide] | 0.0834 | 1.14 | 1.3 |

| Compound | Ki (BRD4 (BDI_K57-E168)) [µM] | Ki (BRD4 (BDII_E352-M457)) [µM] | EC50 [1] [µM] |
| --- | --- | --- | --- |
| Cc1[nH]c(-c2ccccc2Oc2cccc(C#N)c2)cc1C(N)=O [Example 127, 5-[2-(3-cyanophenoxy)phenyl]-2-methyl-1H-pyrrole-3-carboxamide] | 0.233 | 1.04 | 2 |
| Cc1[nH]c(-c2ccccc2Oc2cccc3ncccc23)cc1C(N)=O [Example 128, 2-methyl-5-[2-(quinolin-5-yloxy)phenyl]-1H-pyrrole-3-carboxamide] | 0.0273 | 0.318 | 0.4 |
| Cc1[nH]c(-c2ccccc2Oc2ccc(Cl)cc2F)cc1C(N)=O [Example 129, 5-[2-(4-chloro-2-fluorophenoxy)phenyl]-2-methyl-1H-pyrrole-3-carboxamide] | 0.281 | 2.24 | 2.25 |
| Cc1[nH]c(-c2ccccc2Oc2ccc3[nH]ccc3c2)cc1C(N)=O [Example 130, 5-[2-(1H-indol-5-yloxy)phenyl]-2-methyl-1H-pyrrole-3-carboxamide] | 0.471 | 1.22 | 1.77 |
| COC(=O)CCc1ccccc1Oc1ccccc1-c1cc(C(N)=O)c(C)[nH]1 [Example 133, methyl 3-{2-[2-(4-carbamoyl-5-methyl-1H-pyrrol-2-yl)phenoxy]phenyl}propanoate] | 0.31 | 0.576 | 1.83 |
| Cc1cccc(Oc2ccccc2-c2cc(C(N)=O)c(C)[nH]2)c1 [Example 134, 2-methyl-5-[2-(3-methylphenoxy)phenyl]-1H-pyrrole-3-carboxamide] | 0.493 | 1.17 | > 10 |
| Cc1[nH]c(-c2ccccc2Oc2ccc(-n3ccnc3)cc2)cc1C(N)=O [Example 135, 5-{2-[4-(1H-imidazol-1-yl)phenoxy]phenyl}-2-methyl-1H-pyrrole-3-carboxamide] | 0.355 | 1.86 | > 10 |
| COc1ccc(Oc2ccccc2-c2cc(C(N)=O)c(C)[nH]2)cc1 [Example 137, 5-[2-(4-methoxyphenoxy)phenyl]-2-methyl-1H-pyrrole-3-carboxamide] | 0.218 | 1.02 | 4.88 |
| Cc1[nH]c(-c2ccccc2Oc2ccc3ccccc3c2)cc1C(N)=O [Example 139, 2-methyl-5-[2-(naphthalen-2-yloxy)phenyl]-1H-pyrrole-3-carboxamide] | 0.728 | 1.19 | 8.56 |
| Cc1[nH]c(-c2ccccc2Oc2ccc(F)cc2)cc1C(N)=O [Example 141, 5-[2-(4-fluorophenoxy)phenyl]-2-methyl-1H-pyrrole-3-carboxamide] | 0.123 | 1.6 | 2.42 |
| Cc1[nH]c(-c2ccccc2Oc2cccc(Cl)c2)cc1C(N)=O [Example 142, 5-[2-(3-chlorophenoxy)phenyl]-2-methyl-1H-pyrrole-3-carboxamide] | 0.357 | 0.775 | 2.13 |
| Cc1[nH]c(-c2ccccc2-n2cnc3ccc(O)cc32)cc1C(N)=O [Example 145, 5-[2-(6-hydroxy-1H-benzimidazol-1-yl)phenyl]-2-methyl-1H-pyrrole-3-carboxamide] | 1.19 | 3.92 | > 10 |
| Cc1[nH]c(-c2ccccc2-n2cnc3cc(O)ccc32)cc1C(N)=O [Example 146, 5-[2-(5-hydroxy-1H-benzimidazol-1-yl)phenyl]-2-methyl-1H-pyrrole-3-carboxamide] | 0.0749 | 0.326 | 1.61 |
| Cc1[nH]c(-c2ccccc2Cc2ccccc2)cc1C(N)=O [Example 148, 5-(2-benzylphenyl)-2-methyl-1H-pyrrole-3-carboxamide] | 0.355 | 0.605 | 4.32 |
| COc1cc(-c2cc(C(N)=O)c(C)[nH]2)cc(OC)c1OC [Example 149, 2-methyl-5-(3,4,5-trimethoxyphenyl)-1H-pyrrole-3-carboxamide] | 0.884 | 3.88 | 2.32 |
| Cc1[nH]c(-c2cccc(-c3cccc(CN4CCN(C)CC4)c3)c2)cc1C(N)=O [Example 158, 2-methyl-5-{3′-[(4-methylpiperazin-1-yl)methyl]biphenyl-3-yl}-1H-pyrrole-3-carboxamide] | 1.5 | 2.14 | 7.75 |
